Where two headings read alike, the source gives them in different places.
Legend:
[1] = test system: recombinant NL-Rluc virus; assay: Inhibition of HIV replication (NL-RLuc luciferase reporter virus in MT-2 cells); format: cell-based; conditions: Human immunodeficiency virus 1, MT2, 120 h
[2] = rcm bond, 20-membered ring, Hoveyda-Grubbs II, then H2, Pd/C, then NaOH, DCE, 2.0 mM, 3 steps

SMILES	EC50 [1] [µM]	other results
Cc1cc(CNC(=O)c2cc3c(-c4cc(F)c5c(c4C)CCCO5)c([C@H](OC(C)(C)C)C(=O)O)c(C)cn3n2)ccc1F [Example 1]	0.003	
Cc1ccc2c(c1)-c1cccc(c1)-c1cc3c(c([C@H](OC(C)(C)C)C(=O)O)c(C)cn3n1)N1CCC(C)(CC1)OCCCCC[C@@H](C)O2 (single isomer, unassigned) [Example 31]	0.258	
COC(=O)[C@@H](OC(C)(C)C)c1c(C)cn2nc3cc2c1N1CCC(C)(CC1)OCC=CC[C@H](C)Oc1cccc(F)c1-c1cccc-3c1		ring closure, yield after HPLC ([2]; from C=CCOC1(C)CCN(c2c([C@H](OC(C)(C)C)C(=O)OC)c(C)cn3nc(-c4cccc(-c5c(F)cccc5O[C@@H](C)CC=C)c4)cc23)CC1, 85.0 °C, 2.0 h): 19.6%
Cc1ccc2c(c1)-c1cccc(c1)-c1cc3c(c([C@H](OC(C)(C)C)C(=O)O)c(C)cn3n1)N1CCC(C)(CC1)OCCCC[C@H](C)O2 [Example 29, (2S)-2-(tert-Butoxy)-21[(22S)-4,17,22,28-tetramethyl-21,27-dioxa-1,6,34-triazahexacyclo[26.2.2.1^6,^9.1^10,^14.0^2,^7.0^15,^20]tetratriaconta-2,4,7,9 (34),10(33),11,13,15(20),16,18-decaen-3-yl]acetic acid]	0.04	
Cc1cn2nc3cc2c(c1[C@H](OC(C)(C)C)C(=O)O)N1CCC(C)(CC1)OCCCC[C@H](C)Oc1cccc(F)c1-c1cccc-3c1 [Example 34, (2S)-2-(tert-Butoxy)-2-[(22S)-16-fluoro-4,22,28-trimethyl-21,27-dioxa-1,6,34-triazahexacyclo[26.2.2.1^6,^9.1^10,^14.0^2,^7.0^15,^20]tetratriaconta-2,4,7,9(34),10(33),11,13,15(20),16,18-decaen-3-yl]acetic acid]	0.014	
CCC[C@H](C)Oc1cccc(F)c1-c1cccc(-c2cc3c(N4CCC(C)(O)CC4)c([C@H](OC(C)(C)C)C(=O)O)c(C)cn3n2)c1 [Example 35, (2S)-2-(tert-Butoxy)-2-[2-(3-{2-fluoro-6-[(2S)-pentan-2-yloxy]phenyl}phenyl)-4-(4-hydroxy-4-methylpiperidin-1-yl)-6-methylpyrazolo[1,5-a]pyridin-5-yl]acetic acid]	0.607	
Cc1ccc2c(c1)-c1cccc(c1)-c1cc3c(c([C@H](OC(C)(C)C)C(=O)O)c(C)cn3n1)N1CCC(C)(CC1)OCCCCC[C@H](C)O2 [Example 30, (2S)-2-(tert-Butoxy)-2-[(22S)-4,17,22,29-tetramethyl-21,28-dioxa-1,6,35-triazahexacyclo[27.2.2.1^6,^9.1^10,^14.0^2,^7.0^15,^20]pentatriaconta-2,4,7,9 (35),10(34),11,13,15(20),16,18-decaen-3-yl]acetic acid]	0.084	
COC(=O)[C@@H](OC(C)(C)C)c1c(C)cn2nc3cc2c1N1CCC(C)(CC1)OCC=CC[C@H](C)Oc1ccc(C)c(F)c1-c1cccc-3c1		ring closure, yield after HPLC ([2]; from C=CCOC1(C)CCN(c2c([C@H](OC(C)(C)C)C(=O)OC)c(C)cn3nc(-c4cccc(-c5c(O[C@@H](C)CC=C)ccc(C)c5F)c4)cc23)CC1, 80.0 °C, 4.0 h): 11%
Cc1cc(CNC(=O)c2cc3c(-c4ccc5c6c(ccnc46)CCO5)c([C@H](OC(C)(C)C)C(=O)O)c(C)cn3n2)ccc1F (atropisomer, axis not shown) [Example 2, (2S)-2-(tert-Butoxy)-2-(4-(2,3-dihydropyrano[4,3,2-de]quinolin-7-yl)-2-((4-fluoro-3-methylbenzyl)carbamoyl)-6-methylpyrazolo[1,5-a]pyridin-5-yl)acetic acid]	0.063	
Cc1ccc2c(c1)-c1cccc(c1)-c1cc3c(c([C@H](OC(C)(C)C)C(=O)O)c(C)cn3n1)N1CCC(C)(CC1)OCCC[C@H](C)CO2 (single isomer, unassigned) [Example 32]	0.178	
Cc1cn2nc3cc2c(c1[C@H](OC(C)(C)C)C(=O)O)N1CCC(C)(CC1)OCCCC[C@H](C)Oc1ccc(C#N)cc1-c1cccc-3c1 [Example 42, (2S)-2-(tert-Butoxy)-2-[(22S)-17-cyano-4,22,28-trimethyl-21,27-dioxa-1,6,34-triazahexacyclo[26.2.2.1^6,^9.1^10,^14.0^2,^7.0^15,^20]tetratriaconta-2,4,7,9 (34),10(33),11,13,15(20),16,18-decaen-3-yl]acetic acid]	0.007	
CCCOC1(C)CCN(c2c([C@H](OC(C)(C)C)C(=O)O)c(C)cn3nc(-c4cccc(-c5c(O[C@@H](C)CCC)ccc(C)c5F)c4)cc23)CC1 [Example 41, (2S)-2-(tert-Butoxy)-2-[2-(3-{2-fluoro-3-methyl-6-[(2S)-pentan-2-yloxy]phenyl}phenyl)-6-methyl-4-(4-methyl-4-propoxypiperidin-1-yl)pyrazolo[1,5-a]pyridin-5-yl]acetic acid]	0.728	
Cc1cn2nc(-c3ncc(Cc4ccc(F)cc4)o3)cc2c(N2CCC(C)(C)CC2)c1[C@H](OC(C)(C)C)C(=O)O [Example 5, (S)-2-(tert-Butoxy)-2-(4-(4,4-dimethylpiperidin-1-yl)-2-(5-(4-fluorobenzyl)oxazol-2-yl)-6-methylpyrazolo[1,5-a]pyridin-5-yl)acetic acid]	0.005	
C=CCOC1(C)CCN(c2c([C@H](OC(C)(C)C)C(=O)O)c(C)cn3nc(-c4cccc(Br)c4)cc23)CC1 [Example 28, (S)-2-(4-(4-(Allyloxy)-4-methylpiperidin-1-yl)-2-(3-bromophenyl)-6-methylpyrazolo[1,5-a]pyridin-5-yl)-2-(tert-butoxy)acetic acid]	0.138	
Cc1ccc2c(c1F)-c1cccc(c1)-c1cc3c(c([C@H](OC(C)(C)C)C(=O)O)c(C)cn3n1)N1CCC(C)(CC1)OCCCC[C@H](C)O2 [Example 39, (2S)-2-(tert-Butoxy)-2-[(22S)-16-fluoro-4,17,22,28-tetramethyl-21,27-dioxa-1,6,34-triazahexacyclo[26.2.2.1^6,^9.1^10,^14.0^2,^7.0^15,^20]tetratriaconta-2,4,7,9(34),10(33),11,13,15(20),16,18-decaen-3-yl]acetic acid]	0.038	
Cc1ccc2c(c1F)-c1cccc(c1)-c1cc3c(c([C@H](OC(C)(C)C)C(=O)O)c(C)cn3n1)N1CCC(C)(CC1)OCCCC[C@@H](C)O2 [Example 40, (2S)-2-(tert-Butoxy)-2-[(22R)-16-fluoro-4,17,22,28-tetramethyl-21,27-dioxa-1,6,34-triazahexacyclo[26.2.2.1^6,^9.1^10,^14.0^2,^7.0^15,^20]tetratriaconta-2,4,7,9(34),10(33),11,13,15(20),16,18-decaen-3-yl]acetic acid]	2.35	
Cc1cn2nc3cc2c(c1[C@H](OC(C)(C)C)C(=O)O)N1CCC(C)(CC/C=C/COc2cc(F)ccc2CNC3=O)CC1 [Example 26, (2S)-2-(tert-Butoxy)-2-[(21E)-16-fluoro-4,25-dimethyl-10-oxo-19-oxa-1,6,11,30-tetraazapentacyclo[23.2.2.1^6,^9.0^2,^7.0^13,^18]triaconta-2,4,7,9(30),13(18),14,16,21-octaen-3-yl]acetic acid]	0.006	
Cc1cn2nc3cc2c(c1[C@H](OC(C)(C)C)C(=O)O)N1CCC(C)(CC1)OC/C=C/COc1ccccc1Cc1cnc-3s1 [Example 27, (2S)-2-(tert-Butoxy)-2-[(23E)-4,27-dimethyl-21,26-dioxa-32-thia-1,6,11,33-tetraazahexacyclo[25.2.2.1^6,^9.1^10,^13.0^2,^7.0^15,^20]tritriaconta-2,4,7,9 (33),10,12,15(20),16,18,23-decaen-3-yl]acetic acid]	0.004	
Cc1cn2nc3cc2c(c1[C@H](OC(C)(C)C)C(=O)O)N1CCC(C)(CC1)OCCC[C@H](C)Oc1ccc(F)cc1-c1cccc-3c1 [Example 37, (2S)-2-(tert-Butoxy)-2-[(22S)-17-fluoro-4,22,27-trimethyl-21,26-dioxa-1,6,33-triazahexacyclo[25.2.2.1^6,^9.1^10,^14.0^2,^7.0^15,^20]tritriaconta-2,4,7,9(33),10(32),11,13,15(20),16,18-decaen-3-yl]acetic acid]	0.029	
Cc1cc(CNC(=O)c2cc3c(N4CCC(C)(C)CC4)c([C@H](OC(C)(C)C)C(=O)O)c(C)cn3n2)ccc1F [Example 3, (S)-2-(tert-Butoxy)-2-(4-(4,4-dimethylpiperidin-1-yl)-2-((4-fluoro-3-methylbenzyl)carbamoyl)-6-methylpyrazolo[1,5-a]pyridin-5-yl)acetic acid]	0.017	
Cc1cn2nc3cc2c(c1[C@H](OC(C)(C)C)C(=O)O)N1CCC(C)(CC1)OCCCC[C@H](C)Oc1cc(F)ccc1-c1cccc-3c1 [Example 38, (2S)-2-(tert-Butoxy)-2-[(22S)-18-fluoro-4,22,28-trimethyl-21,27-dioxa-1,6,34-triazahexacyclo[26.2.2.1^6,^9.1^10,^14.0^2,^7.0^15,^20]tetratriaconta-2,4,7,9 (34),10(33),11,13,15 (20),16,18-decaen-3-yl]acetic acid]	0.03	
Cc1cn2nc3cc2c(c1[C@H](OC(C)(C)C)C(=O)O)N1CCC(C)(CC1)OCCCC[C@H](C)Oc1ccc(F)cc1-c1cccc-3c1 [Example 36, (2S)-2-(tert-Butoxy)-2-[(22S)-17-fluoro-4,22,28-trimethyl-21,27-dioxa-1,6,34-triazahexacyclo[26.2.2.1^6,^9.1^10,^14.0^2,^7.0^15,^20]tetratriaconta-2,4,7,9(34),10(33),11,13,15(20),16,18-decaen-3-yl]acetic acid]	0.05	
Cc1ccc2c(c1)-c1cccc(c1)-c1cc3c(c([C@H](OC(C)(C)C)C(=O)O)c(C)cn3n1)N1CCC(C)(CC1)OCCC[C@@H](C)CO2 (single isomer, unassigned) [Example 33]	0.116	
Cc1cn2nc3ccccc3c2c(-c2cc(F)c3c(c2C)CCCO3)c1[C@H](OC(C)(C)C)C(=O)O [Example 25, (2S)-2-(tert-Butoxy)-2-(10-(8-fluoro-5-methylchroman-6-yl)-8-methylpyrido[1,2-b]indazol-9-yl)acetic acid]	0.037	
Cc1cn2nc(-c3ncc(Cc4ccc(F)cc4)s3)cc2c(N2CCC(C)(C)CC2)c1[C@H](OC(C)(C)C)C(=O)O [Example 4, (S)-2-(tert-Butoxy)-2-(4-(4,4-dimethylpiperidin-1-yl)-2-(5-(4-fluorobenzyl)thiazol-2-yl)-6-methylpyrazolo[1,5-a]pyridin-5-yl)acetic acid]	0.018	

Reference: patent US9527842B2, “Inhibitors of human immunodeficiency virus replication” (priority 2013, dated 2016)
